Laboratory results from ChEMBL document CHEMBL3745672, “Novel compounds reducing IRS-1 serine phosphorylation for treatment of diabetes” (Bioorg Med Chem Lett, 2016).

Experiments:
HEK293 = assay: Cytotoxicity against HEK293 after 24 hrs by CellTiter-Glo luminescent cell viability assay; type: cell-based; conditions: Homo sapiens, HEK293, 24 h
[1] = target: T1, Mitogen-activated protein kinase 8 (Homo sapiens, UniProt P45983); assay: Inhibition of JNK1 (unknown origin)
[2] = target: Serine/threonine-protein kinase mTOR (Homo sapiens) (UniProt P42345); assay: Inhibition of mTOR (unknown origin) at 10 uM
[3] = target: T2, Interleukin-1 receptor-associated kinase 4 (Homo sapiens) (UniProt Q9NWZ3); assay: Inhibition of IRAK4 (unknown origin) at 10 uM
T2 sequence (whole entry): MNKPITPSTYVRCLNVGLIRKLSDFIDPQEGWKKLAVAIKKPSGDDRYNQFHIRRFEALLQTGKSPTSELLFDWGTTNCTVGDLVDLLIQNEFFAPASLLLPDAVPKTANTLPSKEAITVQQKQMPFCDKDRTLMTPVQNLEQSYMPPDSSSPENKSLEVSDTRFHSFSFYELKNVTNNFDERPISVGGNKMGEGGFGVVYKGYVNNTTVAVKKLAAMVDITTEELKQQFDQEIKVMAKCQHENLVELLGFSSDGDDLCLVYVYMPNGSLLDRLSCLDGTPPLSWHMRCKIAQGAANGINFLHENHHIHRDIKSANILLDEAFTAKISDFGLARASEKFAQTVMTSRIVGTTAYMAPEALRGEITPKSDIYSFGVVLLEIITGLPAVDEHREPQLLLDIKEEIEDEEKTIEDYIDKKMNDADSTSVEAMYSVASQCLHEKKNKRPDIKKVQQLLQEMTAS

[4] = target: Angiopoietin-1 receptor (Homo sapiens) (UniProt Q02763); assay: Inhibition of TIE2 (unknown origin) at 10 uM
[5] = target: Rho-associated protein kinase 2 (Homo sapiens) (UniProt O75116); assay: Inhibition of ROCK2 (unknown origin) at 10 uM
Rho-associated protein kinase 2 (Homo sapiens), sequence (O75116 whole entry, looked up): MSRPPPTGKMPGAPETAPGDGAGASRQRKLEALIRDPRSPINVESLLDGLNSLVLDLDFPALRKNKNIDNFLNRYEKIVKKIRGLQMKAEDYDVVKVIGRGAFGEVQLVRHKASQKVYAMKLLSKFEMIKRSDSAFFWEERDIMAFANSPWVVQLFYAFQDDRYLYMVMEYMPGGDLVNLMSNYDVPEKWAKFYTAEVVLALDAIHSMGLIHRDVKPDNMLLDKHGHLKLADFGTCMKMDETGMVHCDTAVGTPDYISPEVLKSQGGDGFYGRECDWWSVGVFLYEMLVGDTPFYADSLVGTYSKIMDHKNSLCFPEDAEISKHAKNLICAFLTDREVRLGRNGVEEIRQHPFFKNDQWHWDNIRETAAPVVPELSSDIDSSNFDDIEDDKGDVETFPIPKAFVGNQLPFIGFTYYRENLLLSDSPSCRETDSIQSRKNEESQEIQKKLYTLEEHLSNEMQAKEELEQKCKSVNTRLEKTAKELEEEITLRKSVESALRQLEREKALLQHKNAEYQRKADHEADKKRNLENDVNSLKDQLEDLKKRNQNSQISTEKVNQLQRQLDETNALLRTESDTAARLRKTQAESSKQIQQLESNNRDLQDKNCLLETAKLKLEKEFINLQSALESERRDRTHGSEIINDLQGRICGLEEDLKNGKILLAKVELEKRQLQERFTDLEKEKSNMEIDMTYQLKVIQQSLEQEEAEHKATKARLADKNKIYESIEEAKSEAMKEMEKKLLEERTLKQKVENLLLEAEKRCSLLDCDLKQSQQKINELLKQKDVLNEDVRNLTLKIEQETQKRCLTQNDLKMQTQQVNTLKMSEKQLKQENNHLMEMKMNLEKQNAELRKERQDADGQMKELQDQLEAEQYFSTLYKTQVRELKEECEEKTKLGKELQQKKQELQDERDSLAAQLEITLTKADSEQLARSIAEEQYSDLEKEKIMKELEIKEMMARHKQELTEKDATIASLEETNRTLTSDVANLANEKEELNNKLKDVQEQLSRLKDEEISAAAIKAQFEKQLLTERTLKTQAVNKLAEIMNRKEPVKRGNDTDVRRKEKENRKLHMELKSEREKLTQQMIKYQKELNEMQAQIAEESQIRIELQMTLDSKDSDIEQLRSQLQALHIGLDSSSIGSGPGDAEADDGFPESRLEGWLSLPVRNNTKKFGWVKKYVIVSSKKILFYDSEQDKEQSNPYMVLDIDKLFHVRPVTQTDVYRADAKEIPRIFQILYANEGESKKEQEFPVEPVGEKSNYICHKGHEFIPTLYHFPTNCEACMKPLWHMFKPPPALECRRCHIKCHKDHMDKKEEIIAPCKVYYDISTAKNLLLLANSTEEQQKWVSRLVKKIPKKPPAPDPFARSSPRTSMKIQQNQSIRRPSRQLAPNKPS

[6] = target: Receptor-type tyrosine-protein kinase FLT3 (Homo sapiens) (UniProt P36888); assay: Inhibition of FLT3 (unknown origin) at 10 uM
[7] = target: Protein kinase C alpha type (Homo sapiens) (UniProt P17252); assay: Inhibition of PKCalpha (unknown origin) at 10 uM
[8] = target: T1, Mitogen-activated protein kinase 8; assay: Inhibition of JNK1 (unknown origin) expressed in HEK293 cells assessed as anisomycin-induced IRS-1(Ser307) phosphorylation at 10 uM incubated for 30 mins by Western blot analysis relative to anisomycin; type: cell-based; design: scale not given: the % may be the effect or the level left
[9] = target: Epithelial discoidin domain-containing receptor 1 (Homo sapiens) (UniProt Q08345); assay: Inhibition of DDR1 (unknown origin) at 10 uM
Epithelial discoidin domain-containing receptor 1 (Homo sapiens), sequence (Q08345 whole entry, the tested form may be a part): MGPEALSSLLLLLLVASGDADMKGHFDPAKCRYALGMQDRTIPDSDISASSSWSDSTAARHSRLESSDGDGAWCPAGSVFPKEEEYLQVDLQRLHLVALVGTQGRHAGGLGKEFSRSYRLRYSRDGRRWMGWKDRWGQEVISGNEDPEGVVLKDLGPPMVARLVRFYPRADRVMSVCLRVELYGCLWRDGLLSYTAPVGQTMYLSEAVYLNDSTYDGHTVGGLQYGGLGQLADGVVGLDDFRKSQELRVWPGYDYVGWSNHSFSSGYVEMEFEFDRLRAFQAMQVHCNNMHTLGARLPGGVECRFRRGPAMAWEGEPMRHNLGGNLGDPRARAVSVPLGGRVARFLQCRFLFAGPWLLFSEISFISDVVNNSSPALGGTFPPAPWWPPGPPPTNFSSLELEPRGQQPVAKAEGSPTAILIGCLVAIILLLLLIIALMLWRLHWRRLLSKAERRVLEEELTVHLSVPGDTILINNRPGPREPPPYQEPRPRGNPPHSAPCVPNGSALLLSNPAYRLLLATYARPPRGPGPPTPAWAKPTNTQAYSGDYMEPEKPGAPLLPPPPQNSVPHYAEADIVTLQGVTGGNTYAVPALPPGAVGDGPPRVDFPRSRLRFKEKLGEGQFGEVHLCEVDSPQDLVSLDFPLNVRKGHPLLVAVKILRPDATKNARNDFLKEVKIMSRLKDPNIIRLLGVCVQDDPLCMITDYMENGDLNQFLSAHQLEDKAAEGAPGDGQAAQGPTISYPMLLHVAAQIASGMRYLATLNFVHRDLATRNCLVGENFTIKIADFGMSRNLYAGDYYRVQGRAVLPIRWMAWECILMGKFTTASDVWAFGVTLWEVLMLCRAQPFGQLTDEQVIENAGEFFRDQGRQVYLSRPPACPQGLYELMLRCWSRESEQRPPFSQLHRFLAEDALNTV

[10] = target: T1, Mitogen-activated protein kinase 8; assay: Inhibition of JNK1 (unknown origin) at 10 uM
[11] = target: T3, Serine/threonine-protein kinase Chk1 (Homo sapiens) (UniProt O14757); assay: Inhibition of CHK1 (unknown origin) at 10 uM
T3 sequence (whole entry): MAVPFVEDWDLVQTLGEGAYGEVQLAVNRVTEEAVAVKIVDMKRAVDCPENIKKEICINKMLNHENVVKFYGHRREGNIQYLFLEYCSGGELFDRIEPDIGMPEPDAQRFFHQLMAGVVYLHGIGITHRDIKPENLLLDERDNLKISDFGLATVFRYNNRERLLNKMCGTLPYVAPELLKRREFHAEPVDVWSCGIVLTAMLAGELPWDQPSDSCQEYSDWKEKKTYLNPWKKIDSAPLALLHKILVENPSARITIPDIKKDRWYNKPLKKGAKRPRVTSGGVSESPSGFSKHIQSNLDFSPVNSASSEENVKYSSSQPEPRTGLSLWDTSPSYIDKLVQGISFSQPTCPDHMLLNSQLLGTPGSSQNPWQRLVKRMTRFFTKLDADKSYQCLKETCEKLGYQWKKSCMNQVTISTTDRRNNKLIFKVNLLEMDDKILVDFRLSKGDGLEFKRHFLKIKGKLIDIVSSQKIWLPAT

[12] = target: Platelet-derived growth factor receptor beta (Homo sapiens) (UniProt P09619); assay: Inhibition of PDGFRbeta (unknown origin) at 10 uM
[13] = target: T1, Mitogen-activated protein kinase 8; assay: Inhibition of JNK1 (unknown origin) expressed in HEK293 cells assessed as anisomycin-induced c-Jun phosphorylation at 10 uM incubated for 30 mins by Western blot analysis relative to anisomycin; type: cell-based; design: scale not given: the % may be the effect or the level left
[14] = target: Proto-oncogene tyrosine-protein kinase receptor Ret (Homo sapiens) (UniProt P07949); assay: Inhibition of RET (unknown origin) at 10 uM
[15] = target: Serine/threonine-protein kinase pim-1 (Homo sapiens) (UniProt P11309); assay: Inhibition of PIM1 (unknown origin) at 10 uM
Serine/threonine-protein kinase pim-1 (Homo sapiens), sequence (P11309 whole entry, looked up): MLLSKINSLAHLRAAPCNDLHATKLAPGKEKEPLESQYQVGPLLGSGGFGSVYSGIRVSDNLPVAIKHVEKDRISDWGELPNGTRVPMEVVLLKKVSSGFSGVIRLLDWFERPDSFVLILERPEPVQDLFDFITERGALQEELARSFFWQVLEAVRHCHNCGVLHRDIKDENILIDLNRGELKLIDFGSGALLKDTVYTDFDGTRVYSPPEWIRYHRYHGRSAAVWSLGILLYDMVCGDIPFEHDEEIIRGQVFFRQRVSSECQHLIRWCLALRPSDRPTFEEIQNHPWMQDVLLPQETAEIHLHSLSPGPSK

[16] = target: Vascular endothelial growth factor receptor 2 (Homo sapiens) (UniProt P35968); assay: Inhibition of VEGFR2 (unknown origin) at 10 uM
[17] = target: Proto-oncogene tyrosine-protein kinase Src (Homo sapiens) (UniProt P12931); assay: Inhibition of SRC (unknown origin) at 10 uM
Proto-oncogene tyrosine-protein kinase Src (Homo sapiens), sequence (P12931 2-536 limits assumed): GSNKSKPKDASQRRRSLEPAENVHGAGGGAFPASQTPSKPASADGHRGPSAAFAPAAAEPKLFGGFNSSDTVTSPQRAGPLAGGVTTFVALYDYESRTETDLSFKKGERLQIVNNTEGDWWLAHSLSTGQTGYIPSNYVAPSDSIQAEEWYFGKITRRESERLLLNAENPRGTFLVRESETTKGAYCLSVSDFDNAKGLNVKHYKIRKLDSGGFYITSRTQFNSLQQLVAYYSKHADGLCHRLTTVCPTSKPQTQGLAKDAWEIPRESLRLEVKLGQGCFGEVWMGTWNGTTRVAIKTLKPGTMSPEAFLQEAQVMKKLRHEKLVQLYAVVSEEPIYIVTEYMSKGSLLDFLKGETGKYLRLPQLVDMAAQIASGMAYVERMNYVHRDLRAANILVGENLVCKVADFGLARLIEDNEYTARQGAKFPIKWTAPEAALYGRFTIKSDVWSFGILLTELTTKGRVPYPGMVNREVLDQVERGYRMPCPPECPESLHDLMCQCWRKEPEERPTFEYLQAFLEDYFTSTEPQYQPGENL

[18] = target: Tyrosine-protein kinase receptor UFO (Homo sapiens) (UniProt P30530); assay: Inhibition of AXL (unknown origin) at 10 uM
[19] = target: Fibroblast growth factor receptor 3 (Homo sapiens) (UniProt P22607); assay: Inhibition of FGFR3 (unknown origin) at 10 uM
Fibroblast growth factor receptor 3 (Homo sapiens), sequence (P22607 23-806 limits assumed): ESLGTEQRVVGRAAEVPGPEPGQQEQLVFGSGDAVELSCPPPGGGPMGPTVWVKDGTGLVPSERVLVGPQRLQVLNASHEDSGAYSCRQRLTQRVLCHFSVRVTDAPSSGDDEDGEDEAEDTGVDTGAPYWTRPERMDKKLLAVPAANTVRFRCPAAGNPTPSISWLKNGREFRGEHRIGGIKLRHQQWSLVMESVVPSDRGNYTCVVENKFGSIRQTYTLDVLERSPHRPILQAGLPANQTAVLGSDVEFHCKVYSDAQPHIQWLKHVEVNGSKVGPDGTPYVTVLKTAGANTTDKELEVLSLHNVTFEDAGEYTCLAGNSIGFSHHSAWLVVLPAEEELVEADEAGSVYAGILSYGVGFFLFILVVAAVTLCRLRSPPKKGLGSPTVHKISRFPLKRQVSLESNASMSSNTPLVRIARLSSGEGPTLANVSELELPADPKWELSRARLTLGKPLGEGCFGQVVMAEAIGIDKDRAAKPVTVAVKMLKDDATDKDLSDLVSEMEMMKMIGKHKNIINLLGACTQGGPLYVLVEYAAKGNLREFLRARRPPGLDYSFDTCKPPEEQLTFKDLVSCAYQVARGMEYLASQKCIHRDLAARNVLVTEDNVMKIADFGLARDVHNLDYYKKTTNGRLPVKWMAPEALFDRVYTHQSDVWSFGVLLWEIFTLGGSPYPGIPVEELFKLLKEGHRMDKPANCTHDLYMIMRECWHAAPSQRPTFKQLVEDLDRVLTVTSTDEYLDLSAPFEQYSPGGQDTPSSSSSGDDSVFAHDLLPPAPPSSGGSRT

[20] = target: T4, Inhibitor of nuclear factor kappa-B kinase subunit beta (Homo sapiens) (UniProt O14920); assay: Inhibition of IKKbeta (unknown origin) at 10 uM
T4 sequence (whole entry): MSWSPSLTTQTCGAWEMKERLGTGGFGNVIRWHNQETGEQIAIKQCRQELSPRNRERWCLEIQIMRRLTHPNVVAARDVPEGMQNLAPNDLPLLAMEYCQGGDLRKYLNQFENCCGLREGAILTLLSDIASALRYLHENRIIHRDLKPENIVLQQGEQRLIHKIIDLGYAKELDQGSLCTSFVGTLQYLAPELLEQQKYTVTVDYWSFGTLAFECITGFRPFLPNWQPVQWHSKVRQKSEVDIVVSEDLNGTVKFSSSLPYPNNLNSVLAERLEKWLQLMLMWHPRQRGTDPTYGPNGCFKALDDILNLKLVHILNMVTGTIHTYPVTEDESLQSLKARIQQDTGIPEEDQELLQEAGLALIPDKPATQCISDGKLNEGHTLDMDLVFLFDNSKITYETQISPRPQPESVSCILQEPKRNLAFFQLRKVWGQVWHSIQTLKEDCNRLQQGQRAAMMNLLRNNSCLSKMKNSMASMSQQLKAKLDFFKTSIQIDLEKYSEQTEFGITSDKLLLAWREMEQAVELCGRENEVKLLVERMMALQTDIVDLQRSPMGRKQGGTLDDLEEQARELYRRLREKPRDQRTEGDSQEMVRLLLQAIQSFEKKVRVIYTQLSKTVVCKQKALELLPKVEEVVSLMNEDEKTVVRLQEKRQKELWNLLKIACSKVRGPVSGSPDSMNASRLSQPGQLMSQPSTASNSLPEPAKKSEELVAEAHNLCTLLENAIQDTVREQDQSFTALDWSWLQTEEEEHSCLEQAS

T1 sequence (P45983 whole entry): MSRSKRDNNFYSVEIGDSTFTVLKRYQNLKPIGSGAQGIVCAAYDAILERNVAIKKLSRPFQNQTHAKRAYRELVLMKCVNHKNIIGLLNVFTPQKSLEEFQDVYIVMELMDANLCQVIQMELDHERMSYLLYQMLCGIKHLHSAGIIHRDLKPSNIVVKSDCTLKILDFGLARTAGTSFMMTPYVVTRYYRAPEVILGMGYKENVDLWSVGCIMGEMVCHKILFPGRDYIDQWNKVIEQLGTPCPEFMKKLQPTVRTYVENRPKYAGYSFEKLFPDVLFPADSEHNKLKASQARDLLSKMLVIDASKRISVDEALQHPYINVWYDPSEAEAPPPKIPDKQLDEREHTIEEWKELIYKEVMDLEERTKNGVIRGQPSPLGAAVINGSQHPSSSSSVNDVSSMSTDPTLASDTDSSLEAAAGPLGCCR

- IC50 [1]: 19.1 µM
- inhibition [2]: 9%
- inhibition [3]: 16%
- inhibition [4]: 0%
- inhibition [5]: 3%
- inhibition [6]: 0%
- inhibition [7]: 13%
- Activity [8]: 0%
- inhibition [9]: 91%
- inhibition [10]: 20%
- inhibition [11]: 8%
- inhibition [12]: 29%
- Activity [13]: 137%
- inhibition [14]: 24%
- inhibition [15]: 0%
- inhibition [16]: 30%
- inhibition [17]: 18%
- inhibition [18]: 4%
- inhibition [19]: 0%
- inhibition [20]: 6%
Compound: CN1CCN(CCCNc2ncc3cc(Oc4ccc(F)cc4F)c(=O)n(C)c3n2)CC1
- IC50 (HEK293): > 30 µM
